Data: US20260083826A1, “NEW SYNTHETIC DRUGS FOR TREATING ALZHEIMER'S DISEASE” (OKINAWA INSTITUTE OF SCIENCE AND TECHNOLOGY SCHOOL …, priority 2022, published 2026)
Entries after “also recorded” stand apart in the source; their conditions may differ.

Experiments:
porcine tubulin = porcine tubulin (Sus scrofa, UniProt P02550+P02554); assay: Tubulin polymerization assay (MT assembly); assay type: biochemical
[1] = tested on: calyx of Held presynaptic terminals; assay: Simultaneous pre- and postsynaptic whole-cell recording of EPSCs at the calyx of Held in brainstem slices; assay type: cell-based, mouse; settings: for EPSC amplitude at 30 min (normalized to baseline): 1 μM intra-terminal; for EPSC amplitude 30 min after infusion (normalized to baseline) / EPSC amplitude remaining 30 min after infusion (normalized to baseline): 20 μM loaded in presynaptic terminal; for Prevention of WT h-tau-induced EPSC rundown: 20 μM co-loaded with WT h-tau 20 μM; for Effect on h-tau-induced EPSC rundown: 1 mM co-loaded with h-tau 20 μM, 30 min after infusion
β3-tubulin = assay: Immunofluorescence quantification of MTs in calyceal terminals; assay type: cell-based, mouse
Method: (§1) The following primary antibodies were used: anti-β3-tubulin (Synaptic System, #302304), anti-human Tau (BioLegend, #806501), anti-dynamin (Invitrogen, PA1-660). Secondary antibodies were goat IgG conjugated with Alexa Fluor 488, 568, or 647 (Thermo Fisher Scientific). Acute brainstem slices (175 μm in thickness, see below) were fixed with 4% paraformaldehyde in PBS for 30 min at 37° C. and overnight at 4° C. On the following day, slices were rinsed three times in PBS, permeabilized in PBS containing 0.5% Triton X-100 (Tx-100; Nacalai Tesque) for 30 min and blocked in PBS containing 3% bovine serum albumin (BSA; Sigma-Aldrich) and 0.05% Tx-100 for 45 min. Slices were incubated overnight at 4° C. with primary antibody diluted in PBS 0.05% Tx-100, 0.3% BSA. On the next day, slices were rinsed three times with PBS containing 0.05% Tx-100 for 10 min and incubated with corresponding secondary antibody diluted in PBS 0.05% Tx-100, 0.3% BSA for 1 h at room temperature (RT). […] For quantifying fluorescence intensity levels, the region of interest was delimited around calyceal terminals, and background fluorescence was subtracted using ImageJ software.
(§2) The monomeric GTPases dynamin 1 and 3 play critical roles in the endocytic fission of SVs (50-52). […] To test this hypothesis, we performed immunofluorescence microscopy and image analysis to quantify MTs and dynamin. […]

[2] = tested on: calyx of Held presynaptic terminals; assay: Membrane capacitance measurements (SV exo-endocytosis) at calyx of Held presynaptic terminals; assay type: cell-based, mouse; settings: for Presynaptic Ca2+ current charge (QCa) / Exocytic capacitance magnitude / Endocytic rate (endocytic capacitance change): 20 μM; for Presynaptic Ca2+ current charge (QCa): 20-30 min after patch membrane rupture; for Exocytic capacitance magnitude: vs controls; for Effect on h-tau-induced endocytic slowing: 0.25 mM co-loaded with WT h-tau 20 μM
dynamin1 = assay: Immunofluorescence quantification of bound-form dynamin in calyceal terminals; assay type: cell-based, mouse
Method: as §1, §2

MT-dynamin 1 binding = biological target: T1, MT-dynamin 1 binding (Sus scrofa, UniProt P02550+P02554); assay: MT-dynamin binding assay (microtubule spin-down, SDS-PAGE, SYPRO Orange); parameters: species or system human
T1 construct: His
Method: Microtubule binding assay was performed using Microtubule Binding Protein Spin Down Assay Kit (cat #BK029, Cytoskeleton Inc., Denver, CO, USA). Briefly, 20 μl of 5 mg/ml tubulin in general tubulin buffer (GTB; 80 mM PIPES pH7.0, 2 mM MgCl2, 0.5 mM EGTA) supplemented with 1 mM GTP were polymerized by adding 2 μl of cushion buffer (80 mM PIPES pH7.0, 1 mM MgCl2, 1 mM EGTA, 60% glycerol), and incubated at 35° C. for 20 min. Microtubules were stabilized with 20 μM Taxol. Taxol-stabilized microtubules (2.5 μM) and dynamin 1 ([…]) were incubated in GTB with or without 1 mM peptide at room temperature for 30 min. After incubation, the 50 μl of mixture was loaded on top of 100 μl cushion buffer supplemented with 20 μM Taxol, and then centrifuged at 100,000×g for 40 min at room temperature. After the ultracentrifugation, 50 μl of supernatant was taken and mixed with 10 μl of 5×sample buffer. The resultant pellet was resuspended with 50 μl of 1×sample buffer. Twenty μl of each sample was analyzed by SDS-PAGE and stained with SYPRO Orange. Protein bands were visualized using FLA-3000 (FUJIFILM Co. LTD, Tokyo, Japan).
MTs were prepared from tubulin and stabilized by taxol. And then taxol stabilized MTs and Dyn1 were incubated with/without PHDP5. Using ultracentrifugation to separate supernatant (unbinding protein) and pellet (bound protein) fractions. Samples were analyzed by SDS-PAGE gel and visualized by SYPRO Orange staining. […] This may cause by competitive binding of Dyn1/PHDP5 to MTs (FIG. 6A).
We changed the incubation order that MTs were mixed with PHDP5 and then incubated with Dyn1.
For optimizing the condition of PHDP5 to block MT-dynamin binding, we have tried different PHDP5 concentration and incubation period with Dyn1. […] Without PHDP5, there is no difference between each time point (FIG. 7B). […] We prepared several FITC-labeled PHDP5 peptide candidates to improve the brain barrier permeability of PHDP5 (Table 3). The N-terminus of the construct was protected with β-alanine (BA) and labeled with FITC. Under the same condition, several FITC-labeled PHDP5 candidates and its' scrambled control were also tested.

[3] = 30 min after patch membrane rupture
[4] = 30 min after patch membrane rupture, listed as h-tau

Sequence of porcine tubulin (P02550 whole entry, the tested form may be a part): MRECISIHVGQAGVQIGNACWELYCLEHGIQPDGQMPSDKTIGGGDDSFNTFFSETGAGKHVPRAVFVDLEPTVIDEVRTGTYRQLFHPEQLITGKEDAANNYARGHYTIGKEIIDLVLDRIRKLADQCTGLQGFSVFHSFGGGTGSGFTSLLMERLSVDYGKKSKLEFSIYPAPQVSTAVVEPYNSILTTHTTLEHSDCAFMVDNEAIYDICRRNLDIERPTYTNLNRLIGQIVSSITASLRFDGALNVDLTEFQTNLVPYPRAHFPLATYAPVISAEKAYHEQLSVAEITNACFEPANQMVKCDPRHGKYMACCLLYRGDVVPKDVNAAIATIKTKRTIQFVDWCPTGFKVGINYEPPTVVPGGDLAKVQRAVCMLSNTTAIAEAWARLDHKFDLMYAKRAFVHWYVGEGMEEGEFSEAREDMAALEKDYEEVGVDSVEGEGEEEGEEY
Sequence of porcine tubulin (P02554 whole entry, the tested form may be a part): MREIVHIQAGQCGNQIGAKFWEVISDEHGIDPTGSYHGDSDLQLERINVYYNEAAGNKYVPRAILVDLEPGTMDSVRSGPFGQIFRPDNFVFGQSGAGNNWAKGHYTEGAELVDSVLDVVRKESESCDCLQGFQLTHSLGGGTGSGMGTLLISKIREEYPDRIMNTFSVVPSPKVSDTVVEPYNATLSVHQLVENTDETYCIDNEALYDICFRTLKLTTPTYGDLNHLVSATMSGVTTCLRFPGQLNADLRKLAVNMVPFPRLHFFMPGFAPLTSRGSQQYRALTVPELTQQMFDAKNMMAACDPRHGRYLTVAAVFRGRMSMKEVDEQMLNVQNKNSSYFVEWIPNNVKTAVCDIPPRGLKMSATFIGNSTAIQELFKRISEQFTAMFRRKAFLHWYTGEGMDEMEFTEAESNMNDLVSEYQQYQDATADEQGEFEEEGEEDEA
T1 sequence (P02550 whole entry): as the sequence (P02550 whole entry, the tested form may be a part) above
T1 sequence (P02554 whole entry): as the sequence (P02554 whole entry, the tested form may be a part) above

CC(=O)O[C@H]1C(=O)[C@@]2(C)[C@H]([C@H](OC(=O)c3ccccc3)[C@]3(O)C[C@H](OC(=O)[C@H](O)[C@@H](NC(=O)c4ccccc4)c4ccccc4)C(C)=C1C3(C)C)[C@]1(OC(C)=O)CO[C@@H]1C[C@@H]2O [taxol, reference compound]
MT assembly in in vitro tubulin polymerization assay (porcine tubulin; 1 μM): assembles tubulins into MTs; also recorded: MT assembly | EPSC amplitude at 30 min (normalized to baseline) ([1]; EPSCs evoked at 0.1 Hz): 104±3.0% | EPSC amplitude at 30 min (normalized to baseline) ([1]; EPSCs evoked at 0.1 Hz, listed as Taxol): 105±3.0% | EPSC amplitude at 30 min (normalized to baseline) ([1]; EPSCs evoked at 1 Hz): 41±12% | EPSC amplitude at 30 min (normalized to baseline) ([1]; EPSCs evoked at 1 Hz, listed as Taxol): 41.4±12%

WT h-tau: wild-type recombinant human tau of ON4R isoform expressed in E. coli
MT assembly in in vitro tubulin polymerization assay (porcine tubulin; 10 μM): MT assembly | Increase in MT (β3-tubulin) signals vs terminals without loading (β3-tubulin; 20 μM whole-cell infusion): 2.1 fold | β3-tubulin immunofluorescence intensity vs control terminals (β3-tubulin; WT h-tau loading): significantly increased | Miniature EPSC amplitude and frequency ([1]; 20 μM intra-terminal loading): neither amplitude nor frequency was affected | EPSC amplitude 30 min after infusion (normalized to baseline) ([1]; EPSCs evoked at 0.1 Hz): 85±12% | EPSC amplitude 30 min after infusion (normalized to baseline) ([1]; EPSCs evoked at 0.1 Hz, listed as h-tau): 85%+12 | EPSC amplitude remaining 30 min after infusion (normalized to baseline) ([1]; EPSCs evoked at 1 Hz): 65±5% | EPSC amplitude remaining 30 min after infusion (normalized to baseline) ([1]; EPSCs evoked at 1 Hz, listed as h-tau): 23±9% | Presynaptic Ca2+ current charge (QCa) [2]: not different from controls; also recorded: remained unchanged | Presynaptic Ca2+ current charge (QCa) ([2]; listed as h-tau): without a change | Exocytic capacitance magnitude ([2]; 20 min after patch membrane rupture): not different from controls; also recorded: remained similar to controls | Endocytic rate (endocytic capacitance change) ([2]; 20 min after patch membrane rupture, vs non-loading controls): significant slowing; also recorded: significantly prolonged | Endocytic rate (endocytic capacitance change) [2, 3]: further prolonged | Exocytic capacitance magnitude [2, 3]: significantly less than controls | Exocytic capacitance magnitude [2, 4]: significant reduction | Endocytic rate (endocytic capacitance change) [2, 4]: further slowed | Increase in dynamin signal vs terminals without loading (dynamin1; 20 μM whole-cell infusion): 2.6 fold | dynamin1 immunofluorescence intensity vs control terminals (dynamin1; WT h-tau loading): significantly increased

COC(=O)Nc1nc2ccc(C(=O)c3cccs3)cc2[nH]1 [nocodazole, reference compound]
Concentration at which maximal inhibition of h-tau-dependent MT assembly is reached (porcine tubulin): 20 µM | Inhibition of h-tau-dependent MT assembly (porcine tubulin; nocodazole 1, 10, 20, 50 μM, ON4R h-tau (20 μM)): inhibited h-tau-dependent MT assembly in a concentration-dependent manner; also recorded: Concentration-dependent inhibitory effects | Effect on EPSC amplitude, loaded alone ([1]; 20 μM alone): no effect | Prevention of WT h-tau-induced EPSC rundown [1]: fully prevented | Prevention of WT h-tau-induced EPSC rundown ([1]; listed as Nocodazole): prevented EPSC rundown | Effect on exo-endocytosis, loaded alone ([2]; 20 μM alone): no effect | Prevention of h-tau-induced block of SV endocytosis ([2]; 20 μM co-loaded with h-tau 20 μM, 25 min after loading): fully prevented

PHDP5: synthetic dodecapeptide corresponding to amino acids 560-571 of dynamin 1 (PH domain); inhibits MT-dynamin interaction (EKKYMLSVDNLK)
Inhibition of MT-dynamin 1 interaction (MT-dynamin 1 binding; 1 mM peptide): significantly inhibited; also recorded: strongly inhibits | % of Dyn1 in pellet fraction (MT-dynamin 1 binding; MTs incubated with 1 mM, shorter incubation period with Dyn1 (10 min)): lower | % of Dyn1 in pellet fraction (MT-dynamin 1 binding; MTs incubated with 3 mM compared with 1 mM): lower | % of Dyn1 in pellet fraction (MT-dynamin 1 binding; MTs incubated with 3 mM, incubation with Dyn1 for 5 min): lower | % of Dyn1 in pellet fraction (MT-dynamin 1 binding; MTs mixed with PHDP5 first, then incubated with Dyn1): decreased | Dynamin 1 in precipitates (ppt fraction) relative to total amount (MT-dynamin 1 binding; peptide added to MT and dynamin 1, 22.6±2.4% with MT without peptide): 6.3±2.4% | % of Dyn1 in pellet fraction (MT-dynamin 1 binding; taxol stabilized MTs and Dyn1 incubated together with/without PHDP5): no difference | Effect on EPSC amplitude, loaded alone ([1]; 1 mM alone): did not affect | Effect on EPSC amplitude, loaded alone ([1]; 1 mM alone, listed as DPHP5): no effect | Effect on h-tau-induced EPSC rundown [1]: significantly attenuated | Effect on h-tau-induced EPSC rundown ([1]; listed as DPHP5): attenuated | Effect on exo-endocytic capacitance changes, loaded alone ([2]; 0.25 mM alone): no effect | Effect on h-tau-induced endocytic slowing [2]: significantly attenuated | Effect on h-tau-induced endocytic slowing ([2]; listed as DPHP5): significant difference

O=C1NC(=S)N(c2cccc(Br)c2)C(=O)/C1=C/c1ccco1 [SMFH2, reference compound]
Effect on SV endocytosis ([2]; calyceal terminals in slices from post-hearing mice (P13-14)): slightly prolonged SV endocytosis, but this effect was statistically insignificant

B1: del-MTBD: human tau deletion mutant lacking the MT-binding domain (amino acid 244 to 367) (protein)
chain: MAEPRQEFEVMEDHAGTYGLGDRKDQGGYTMHQDQEGDTDAGLKAEEAGIGDTPSLEDEAAGHVTQARMVSKSKDGTGSDDKKAKGADGKTKIATPRGAAPPGQKGQANATRIPAKTPPAPKTPPSSGEPPKSGDRSGYSSPGSPGTPGSRSRTPSLPTPPTREPKKVAVVRTPPKSPSSAKSRLNKKIETHKLTFRENAKAKTDHGAEIVYKSPVVSGDTSPRHLSNVSSTGSIDMVDSPQLATLADEVSASLAKQGL
MT assembly in in vitro tubulin polymerization assay (porcine tubulin; 10 μM, listed as Del-MTBD): lacking tubulin polymerization capability | Effect on EPSC amplitude, loaded alone ([1]; 20 μM alone): no effect
